Measured values published in patent EP0938471B1, “THE PREPARATION AND USE OF ORTHO-SULFONAMIDO ARYL HYDROXAMIC ACIDS AS MATRIX METALLOPROTEINASE AND TACE INHIBITORS” (priority 1996, dated 1998).

Experiments:
cartilage = experiment: Cartilage degradation in the rat (cartilage-sponge implant); type: in vivo, rat (Lewis strain); conditions: average daily dose 50 mg/kg, intraperitoneal osmotic minipump; for % Inhibition of Cartilage Collagen Loss: * = p<0.05 vs vehicle-treated rats
Protocol: Twenty mg slices of cartilage are obtained from the knee of freshly slaughtered cattle. Discs of cellulose sponge, 6 mm in diameter, are cut and a 2 mm hole put in the center of the sponge. 100 µl of a sterile suspension containing 1 mg of heat-killed Mycobacterium tuberculosis is applied to the sponge. After air-drying overnight, the sponges are autoclaved and a cartilage slice is placed in the hole cut in the sponge disc. Under sterile conditions, the cartilage-sponge disc is placed subcutaneously in the back of an anesthetized rat (Lewis strain, 200 to 250 g). The incision is closed with staples and the rat allowed to recover from anesthesia. Approximately 5 days after sponge implantation, osmotic minipumps (Alza Corp., Palo Alto, CA), containing either investigational compound or vehicle were implanted intraperitoneally in the anesthetized rat under sterile conditions After 19 days, the rats are euthanized by asphyxiation with CO2 and the granulomas containing the implanted sponge excised from the surrounding tissue.
The weight of the piece of cartilage recovered from the sponge was recorded and the collagen content of the cartilage was determined. The mean of the cartilage weights and collagen content was determined for the vehicle and drug-treated groups. The inhibition of cartilage weight and collagen content loss produced by the compounds compared with vehicle-treated rats was determined. Statistical significance (p< 0.05) of vehicle-treated animals versus drug-treated animals was determined by analysis of variance.
Reference: Bishop J., Greenham AK., Lewis EJ. A novel in vivo model for the study of cartilage degradation. J. Pharmacol. Toxicol. Methods, 30:19-25, 1993.

MMP-9 = MMP-9 (Homo sapiens, UniProt P14780); experiment: MMP-9 inhibition (thiopeptide or fluorescent peptide substrate assay); type: biochemical; conditions: read-out: MMP-9 IC50
MMP-1 = biological target: T1, MMP-1 (Homo sapiens, UniProt P03956); experiment: MMP-1 inhibition (thiopeptide or fluorescent peptide substrate assay); type: biochemical; conditions: read-out: MMP-1 IC50
T1 sequence (P03956 100-469): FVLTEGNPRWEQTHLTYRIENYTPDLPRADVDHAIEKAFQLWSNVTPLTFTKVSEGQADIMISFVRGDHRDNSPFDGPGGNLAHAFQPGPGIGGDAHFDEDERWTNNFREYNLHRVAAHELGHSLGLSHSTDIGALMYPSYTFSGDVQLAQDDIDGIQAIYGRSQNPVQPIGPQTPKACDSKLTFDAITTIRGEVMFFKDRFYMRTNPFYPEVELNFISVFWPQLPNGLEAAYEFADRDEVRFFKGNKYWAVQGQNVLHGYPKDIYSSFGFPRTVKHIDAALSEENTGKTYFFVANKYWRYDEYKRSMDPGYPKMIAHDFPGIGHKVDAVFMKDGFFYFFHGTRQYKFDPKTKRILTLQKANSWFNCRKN

TACE = TACE (Homo sapiens, UniProt P78536); experiment: TACE inhibition (fluorescent peptidyl substrate); type: biochemical
TACE, sequence (P78536 215-824): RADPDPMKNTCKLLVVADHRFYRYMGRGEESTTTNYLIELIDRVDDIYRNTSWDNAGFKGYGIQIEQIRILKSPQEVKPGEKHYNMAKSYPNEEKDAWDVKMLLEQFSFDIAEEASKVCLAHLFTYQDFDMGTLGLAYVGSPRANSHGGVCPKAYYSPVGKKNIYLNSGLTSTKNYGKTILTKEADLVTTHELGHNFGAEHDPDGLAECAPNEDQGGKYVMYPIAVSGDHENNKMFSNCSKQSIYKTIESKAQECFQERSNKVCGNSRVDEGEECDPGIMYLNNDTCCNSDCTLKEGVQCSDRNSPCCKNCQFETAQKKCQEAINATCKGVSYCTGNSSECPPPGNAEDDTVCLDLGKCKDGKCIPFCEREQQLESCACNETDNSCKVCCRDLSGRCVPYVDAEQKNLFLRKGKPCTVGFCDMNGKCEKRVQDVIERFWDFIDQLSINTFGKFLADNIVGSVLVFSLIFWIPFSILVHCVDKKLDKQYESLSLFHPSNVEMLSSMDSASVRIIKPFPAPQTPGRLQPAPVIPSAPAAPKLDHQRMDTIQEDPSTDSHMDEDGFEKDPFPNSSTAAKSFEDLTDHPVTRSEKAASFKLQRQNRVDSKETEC

MMP-9, sequence (P14780 94-707): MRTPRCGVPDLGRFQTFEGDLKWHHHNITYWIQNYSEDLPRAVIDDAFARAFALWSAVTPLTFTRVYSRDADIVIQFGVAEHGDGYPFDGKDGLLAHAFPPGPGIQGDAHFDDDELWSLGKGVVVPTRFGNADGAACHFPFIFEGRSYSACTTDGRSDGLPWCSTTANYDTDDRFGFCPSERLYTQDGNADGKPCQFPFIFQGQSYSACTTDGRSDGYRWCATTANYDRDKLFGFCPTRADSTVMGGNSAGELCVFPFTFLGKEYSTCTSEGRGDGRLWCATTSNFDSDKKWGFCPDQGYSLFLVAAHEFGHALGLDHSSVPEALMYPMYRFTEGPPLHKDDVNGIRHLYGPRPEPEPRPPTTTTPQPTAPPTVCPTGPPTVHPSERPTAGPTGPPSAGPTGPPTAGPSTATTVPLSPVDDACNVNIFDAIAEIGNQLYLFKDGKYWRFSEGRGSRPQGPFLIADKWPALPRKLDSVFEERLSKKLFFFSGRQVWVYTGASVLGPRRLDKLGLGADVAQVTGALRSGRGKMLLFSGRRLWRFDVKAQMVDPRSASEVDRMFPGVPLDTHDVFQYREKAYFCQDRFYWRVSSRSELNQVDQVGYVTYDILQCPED

Compound: COc1ccc(S(=O)(=O)N(Cc2cccnc2)c2c(C)cccc2C(=O)NO)cc1 [Example 83, N-Hydroxy-2-[(4-methoxy-benzenesulfonyl)-pyridin-3-ylmethyl-amino]-3-methyl-benzamide]
- % Inhibition of Cartilage Weight Loss (cartilage): 44.6%
- % Inhibition of Cartilage Collagen Loss (cartilage): 51.2* %

Compound: COc1ccc(S(=O)(=O)N(C)c2c(CN3CCN(C)CC3)cc(Br)cc2C(=O)NO)cc1 [Example 313, 5-Bromo-N-hydroxy-2-[(4-methoxy-benzenesulfonyl)-methyl-amino]-3-(4-methyl-piperazin-1-ylmethyl)-benzamide]
- % Inhibition of Cartilage Weight Loss (cartilage): 45.5%
- % Inhibition of Cartilage Collagen Loss (cartilage): 28.0* %
- IC50 (MMP-9): 1.4 nM
- IC50 (MMP-1): 180 nM
- IC50 (TACE): 26 nM
